Literature values as cited in article PMC6504684 (Frontiers in Pharmacology, 2019).

Assays:
rat α9α10 nAChR = details: cited from earlier work
[1] = system: models of pain and inflammation; details: in vivo; cited from earlier work
α9α10 nAChR = details: cited from earlier work
GABAβ receptors = details: cited from earlier work

In the case of Vc1.1, the IC50 (rat α9α10 nAChR) is listed as 19 nM, the “analgesic and anti-inflammatory effects, in words” value [1] is listed as “analgesic and anti-inflammatory effects” and the “selectivity for the α9α10 nAChR, in words” value (α9α10 nAChR) is listed as “α9α10 selective”. The “effects via GABAβ receptors, in words” value (GABAβ receptors) was “can also be transmitted via inhibition of GABAβ receptors”.
